One assay has as its system CDC25B protein levels. Nature of the assay: Western blotting of CDC25B protein levels in A2058 cells. It counts as cell-based, human. The conditions noted are these: A2058, 100 μM, up to 16 h. The method, then:
To better investigate the effect of this inhibitor at the molecular level, we evaluated if the treatment of A2058 cells with 7 affected also the protein levels of the three CDC25 forms. […] On the other hand, the protein levels of CDC25B were unaffected by treatment of A2058 cells with 7 up to 16 h.
A2058 cells were seeded into 6-well-plates (3 × 10^5 cells/plate) for 24 h at 37°C and then treated at different times with 100 μM compound 7 or 0.5% DMSO. After treatment, cells were harvested, washed with PBS and then lysed in ice-cold modified radio immunoprecipitation assay (RIPA) buffer (50 mM Tris-HCl, pH 7.4, 150 mM NaCl, 1% Nonidet P-40, 0.25% sodium deoxycholate, 1 mM Na3VO4 and 1 mM NaF), supplemented with protease inhibitors and incubated for 30 min on ice. The supernatant obtained after centrifugation at 12,000 rpm for 30 min at 4°C constituted the total protein extract. The protein concentration was determined by the method of Bradford, using bovine serum albumin (BSA) as standard. Equal amounts of total protein extracts were used for Western blot analysis. […] Membranes were then analysed by an enhanced chemiluminescence reaction, using Super Signal West Pico kit (Pierce) according to manufacturer's instruction; signals were visualized by autoradiography.

In another assay the target is T1, CDC25C (Homo sapiens, UniProt P30307).
T1 construct: Recombinant forms of the catalytic domains of CDC25A, -B and -C were obtained through the vectors pET28a-CDC25A-cd, pET28a-CDC25B-cd and pET28a-CDC25C-cd; made in house
T1 sequence (P30307 321-428 limits assumed): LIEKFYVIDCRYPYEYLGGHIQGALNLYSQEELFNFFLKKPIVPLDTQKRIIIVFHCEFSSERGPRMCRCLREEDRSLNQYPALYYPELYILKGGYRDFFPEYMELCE
Nature of the assay: Ki from OMFP hydrolysis kinetics (Lineweaver-Burk), CDC25C. It is filed as biochemical. As to conditions: 40 nM CDC25C, 1–25 μM OMFP; mean ± S.E.; read-out: Ki CDC25C. The method, then: To measure the inhibition constant (Ki) of the recombinant forms of CDC25A, -B and -C towards the various inhibitors, the affinity of the different forms of CDC25 towards OMFP was measured either in the absence or in the presence of fixed concentrations of the various inhibitors. The reaction mixture contained 20 nM CDC25A, or 10 nM CDC25B, or 40 nM CDC25C, and different concentrations of the various inhibitors in 500 μL final volume of 20 mM Tris-HCl, pH 7.8, 1 mM DTT. DMSO was used as vehicle control. […] The corresponding Lineweaver-Burk plots allowed the calculation of the KM for OMFP and of the Vmax of OMFP hydrolysis, expressed as a.u./minmax. […] The Ki values were obtained from the decrease of a.u./minmax in the presence of the inhibitor, according to the equation a.u./mimmax’ = a.u./mimmax/{1 + ([I]/Ki)}, where a.u./mimmax’ represents the Vmax measured in the presence of the concentration [I] of the inhibitor. The Ki values were obtained from at least three independent experiments and reported as mean ± S.E.

A further assay has as its system CDC25C protein levels. In words: Western blotting of CDC25C protein levels in SAN cells. As to conditions: 100 μM, 1, 2 or 4 h. It is filed as cell-based, human. (In general: In western blotting, separated proteins are transferred to a membrane and probed.)
The target of a further assay is T2, CDC25B (Homo sapiens, UniProt P30305).
T2 construct: Recombinant forms of the catalytic domains of CDC25A, -B and -C were obtained through the vectors pET28a-CDC25A-cd, pET28a-CDC25B-cd and pET28a-CDC25C-cd; made in house
T2 sequence (P30305 431-538 limits assumed): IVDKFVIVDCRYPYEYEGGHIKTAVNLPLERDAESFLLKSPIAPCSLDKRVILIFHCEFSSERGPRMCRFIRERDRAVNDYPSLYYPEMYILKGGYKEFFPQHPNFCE
In words: Ki from OMFP hydrolysis kinetics (Lineweaver-Burk), CDC25B. It counts as biochemical. The conditions noted are these: 10 nM CDC25B, 1–25 μM OMFP; mean ± S.E. The method, then:
To measure the inhibition constant (Ki) of the recombinant forms of CDC25A, -B and -C towards the various inhibitors, the affinity of the different forms of CDC25 towards OMFP was measured either in the absence or in the presence of fixed concentrations of the various inhibitors. The reaction mixture contained 20 nM CDC25A, or 10 nM CDC25B, or 40 nM CDC25C, and different concentrations of the various inhibitors in 500 μL final volume of 20 mM Tris-HCl, pH 7.8, 1 mM DTT. DMSO was used as vehicle control. The reaction started by the addition of 1–25 μM OMFP, and the rate of OMFP hydrolysis was measured as indicated before. The corresponding Lineweaver-Burk plots allowed the calculation of the KM for OMFP and of the Vmax of OMFP hydrolysis, expressed as a.u./minmax. […] The Ki values were obtained from the decrease of a.u./minmax in the presence of the inhibitor, according to the equation a.u./mimmax’ = a.u./mimmax/{1 + ([I]/Ki)}, where a.u./mimmax’ represents the Vmax measured in the presence of the concentration [I] of the inhibitor. The Ki values were obtained from at least three independent experiments and reported as mean ± S.E.

The next assay has as its system A2058 cells. In words: Apoptosis, subdiploid DNA content by PI flow cytometry, A2058 cells. It counts as cell-based, human. From the text:
PI incorporation followed by flow cytometric analysis was used to detect the effect of 7 on the number of nuclei with a sub-diploid content, a typical hallmark of apoptosis. A time-dependent increase of apoptosis was evident in both A2058 and SAN cells and in particular, the effect of 7 on cell death program was already evident after 24-h treatment (Figure 7). […] To further investigate on the capacity of 7 to induce apoptosis, the enzymatic activity of caspase-3, the final effector of apoptotic program, was monitored.
[…] After each treatment, cells were harvested with trypsin, centrifuged and the pellet was resuspended in phosphate-buffered saline (PBS). For cell cycle analysis, cells were fixed with 70% (v/v) cold ethanol and stored at −20°C for 1 h. Then, cells were washed with cold PBS, centrifuged and the pellets were resuspended in 200 μL of a non-lysis solution containing 50 μg/mL PI. For the evaluation of apoptosis, cells were not fixed in ethanol and directly resuspended in 200 μL of a hypotonic lysis solution containing 50 μg/mL PI. After incubation at 4°C for 30 min, cells were analyzed with a FACScan flow cytometer (Becton Dickinson) for evaluating the distribution in cell cycle phases or the presence of nuclei with a DNA content lower than the diploid.

In the case of `O=C(O)C1CCCCC1c1c2ccc(=O)cc-2oc2cc(O)ccc12` (stereo not shown) [Compound 7, 2-(6-hydroxy-3-oxo-3H-xanthen-9-yl)cyclohexanecarboxylic acid], the CDC25B protein levels entry with CDC25B protein levels is on record as “unaffected”. Further, the inhibition constant (Ki) – broadly, the dissociation constant of the complex between target and ligand, obtained from inhibition or displacement – was determined as 3100 ± 220 nM on CDC25C and 780 ± 30 nM on CDC25B. The CDC25C protein levels entry in the assay on CDC25C protein levels is listed as “earlier decrease of CDC25C protein levels”. The “level of apoptosis caused by 7 in the presence of Z-VAD-FMK” value in the assay with A2058 cells (A2058, 100 μM 7 + 100 μM Z-VAD-FMK, 48 h) was “significantly decreased”. The “apoptosis (nuclei with sub-diploid content)” value in the assay on A2058 cells (A2058, 100 μM, 24-72 h) was “increase of apoptosis became significant at 48 h”. Also, the “apoptosis after NAC pre-treatment” value with A2058 cells (A2058, NAC pre-treatment, 100 μM 7, 48 h) was “in a great part reverted”.

The values above are taken from PMC4741889, “Ligand-based chemoinformatic discovery of a novel small molecule inhibitor targeting CDC25 dual specificity phosphatases and displaying in vitro efficacy against melanoma cells” (Oncotarget, 2015).
